Experiment [1] has as its target Human α2δ-1 Subunit of Cav2.2 Calcium Channel (Homo sapiens, UniProt P54289). The experiment is described as follows: Binding assay to human α2δ-1 subunit of Cav2.2 calcium channel ([3H]-Gabapentin). The conditions noted are these: human α2δ-1 enriched membranes, 15 nM [3H]-Gabapentin, read-out: Ki(nM) alpha2delta Hum. Here is the method:
Binding Assay to Human α2δ-1 Subunit of Cav2.2 Calcium Channel.
Human α2δ-1 enriched membranes (2.5 μg) were incubated with 15 nM of radiolabeled [3H]-Gabapentin in assay buffer containing Hepes-KOH 10 mM, pH 7.4.
NSB (non specific binding) was measured by adding 10 μM pregabalin. The binding of the test compound was measured in five different concentrations. After 60 min incubation at 27° C., binding reaction was terminated by filtering through Multiscreen GF/C (Millipore) presoaked in 0.5% polyethyleneimine in Vacuum Manifold Station, followed by 3 washes with ice-cold filtration buffer containing 50 mM Tris-HCl, pH 7.4.
(§1) Filter plates were dried at 60° C. for 1 hour and 30 μl of scintillation cocktail were added to each well before radioactivity reading.
(§2) Readings were performed in a Trilux 1450 Microbeta radioactive counter (Perkin Elmer).

The target of experiment [2] is Human Norepinephrine Transporter (NET) (Homo sapiens, UniProt P23975). The experiment is described as follows: Binding assay to human norepinephrine transporter (NET) ([3H]-Nisoxetin). The conditions noted are these: Table 2 (dual compounds); human NET enriched membranes, 5 nM [3H]-Nisoxetin; read-out: Ki(nM) NET Hum. As to the method: Binding Assay to Human Norepinephrine Transporter (NET).
Human Norepinephrine Transporter (NET), sequence (P23975 whole entry): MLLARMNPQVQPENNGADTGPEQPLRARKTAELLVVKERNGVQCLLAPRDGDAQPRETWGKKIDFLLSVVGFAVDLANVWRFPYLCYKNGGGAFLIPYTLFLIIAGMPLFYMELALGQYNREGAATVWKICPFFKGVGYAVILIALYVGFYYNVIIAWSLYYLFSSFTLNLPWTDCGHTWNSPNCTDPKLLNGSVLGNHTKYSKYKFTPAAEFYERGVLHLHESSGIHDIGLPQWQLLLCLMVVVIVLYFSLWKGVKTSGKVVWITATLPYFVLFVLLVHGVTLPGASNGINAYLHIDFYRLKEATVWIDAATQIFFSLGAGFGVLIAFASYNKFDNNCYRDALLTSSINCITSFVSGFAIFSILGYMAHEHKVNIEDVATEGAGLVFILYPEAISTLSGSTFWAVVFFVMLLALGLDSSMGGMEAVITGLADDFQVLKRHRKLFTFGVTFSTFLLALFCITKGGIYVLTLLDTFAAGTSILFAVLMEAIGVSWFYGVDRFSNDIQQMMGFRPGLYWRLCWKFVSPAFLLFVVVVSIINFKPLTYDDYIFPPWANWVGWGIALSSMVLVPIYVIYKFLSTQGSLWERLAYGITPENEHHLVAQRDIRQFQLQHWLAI
Human norepinephrine transporter (NET) enriched membranes (5 μg) were incubated with 5 nM of radiolabeled [3H]-Nisoxetin in assay buffer containing 50 mM Tris-HCl, 120 mM NaCl, 5 mM KCl, pH 7.4.
NSB (non specific binding) was measured by adding 10 μM desipramine. The binding of the test compound was measured in five different concentrations. After 60 min incubation at 4° C., binding reaction was terminated by filtering through Multiscreen GF/C (Millipore) presoaked in 0.5% polyethyleneimine in Vacuum Manifold Station, followed by 3 washes with ice-cold filtration buffer containing 50 mM Tris-HCl, 0.9% NaCl, pH 7.4.
as §1, §2

Where two headings read alike, the source gives them in different places. Bounds are passed on as bounds.

Human α2δ-1 Subunit of Cav2.2 Calcium Channel, sequence (P54289 25-1103): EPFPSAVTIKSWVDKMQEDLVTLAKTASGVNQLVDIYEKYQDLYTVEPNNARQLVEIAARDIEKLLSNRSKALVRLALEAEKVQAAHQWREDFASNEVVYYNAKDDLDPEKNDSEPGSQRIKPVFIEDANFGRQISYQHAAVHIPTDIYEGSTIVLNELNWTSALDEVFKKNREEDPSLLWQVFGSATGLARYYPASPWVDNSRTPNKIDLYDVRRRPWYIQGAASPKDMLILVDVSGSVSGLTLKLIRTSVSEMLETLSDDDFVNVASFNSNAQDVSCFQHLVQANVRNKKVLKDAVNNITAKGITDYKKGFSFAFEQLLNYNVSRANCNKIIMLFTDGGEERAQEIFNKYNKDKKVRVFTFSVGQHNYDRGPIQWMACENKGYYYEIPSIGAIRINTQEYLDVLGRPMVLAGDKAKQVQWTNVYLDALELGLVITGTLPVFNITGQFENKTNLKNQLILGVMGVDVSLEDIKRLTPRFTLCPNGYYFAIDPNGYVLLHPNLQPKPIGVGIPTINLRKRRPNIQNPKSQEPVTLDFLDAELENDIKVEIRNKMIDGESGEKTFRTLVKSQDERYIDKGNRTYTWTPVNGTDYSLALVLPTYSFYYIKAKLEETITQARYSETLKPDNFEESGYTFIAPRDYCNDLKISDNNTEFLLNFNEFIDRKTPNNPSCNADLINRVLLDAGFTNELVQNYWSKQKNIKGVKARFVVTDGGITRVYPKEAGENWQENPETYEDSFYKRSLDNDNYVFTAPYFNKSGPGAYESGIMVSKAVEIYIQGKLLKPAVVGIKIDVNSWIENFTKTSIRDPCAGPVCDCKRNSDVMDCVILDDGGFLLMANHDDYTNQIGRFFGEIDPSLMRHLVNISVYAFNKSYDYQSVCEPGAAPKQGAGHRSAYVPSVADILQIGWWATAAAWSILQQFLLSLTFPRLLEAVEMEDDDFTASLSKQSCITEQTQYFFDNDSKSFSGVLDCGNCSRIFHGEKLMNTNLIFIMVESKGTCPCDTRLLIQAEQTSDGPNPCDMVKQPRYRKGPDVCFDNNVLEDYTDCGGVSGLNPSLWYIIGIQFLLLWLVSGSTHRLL

For the compound `CNCCC(Oc1cccc(CNCc2ccccc2)c1)c1cccs1` (centres unmarked) [Example 2, 3-(3-((Benzylamino)methyl)phenoxy)-N-methyl-3-(thiophen-2-yl)propan-1-amine], the Ki in experiment [1] (Table 1) fell in the range of 500 to 3000 nM; in experiment [1] (Table 2 (dual compounds)), 500 to 3000 nM; in experiment [2], 100 to 500 nM.
Consider `CNCCC(Oc1cccc(CN(C)Cc2ccccc2)c1)c1cccs1` (centres unmarked) [Example 6, 3-(3-((Benzyl(methyl)amino)methyl)phenoxy)-N-methyl-3-(thiophen-2-yl)propan-1-amine], for which the Ki in experiment [1] (Table 1) was 100 to 500 nM; in experiment [1] (Table 2 (dual compounds)), 100 to 500 nM; in experiment [2] it was 500 to 1000 nM.
Take `CNCCC(Oc1cccc(C(=O)Nc2ccccc2)c1)c1ccccc1` (centres unmarked) [Example 13, 3-(3-(Methylamino)-1-phenylpropoxy)-N-phenylbenzamide]: the Ki in experiment [1] (Table 1) is ≥ 3000 nM; in experiment [1] (Table 2 (dual compounds)) it was ≥ 3000 nM; in experiment [2] it was 500 to 1000 nM.
Consider `CNCCC(Oc1cccc(C(=O)Nc2cccc(-c3nnc(C)o3)c2)c1)c1ccccc1` (centres unmarked) [Example 14, N-(3-(5-methyl-1,3,4-oxadiazol-2-yl)phenyl)-3-(3-(methylamino)-1-phenylpropoxy)benzamide], for which the Ki is ≥ 3000 nM in experiment [1] (Table 1), ≥ 3000 nM in experiment [1] (Table 2 (dual compounds)) and 100 to 500 nM in experiment [2].
With `CNCCC(Oc1cccc(C(=O)Nc2cccnc2)c1)c1ccccc1` (centres unmarked) [Example 15, 3-(3-(Methylamino)-1-phenylpropoxy)-N-(pyridin-3-yl)benzamide], the Ki in experiment [1] (Table 1) was ≥ 3000 nM; in experiment [1] (Table 2 (dual compounds)), ≥ 3000 nM; in experiment [2], 100 to 500 nM.
Consider `CNCCC(Oc1cccc(C(=O)NCc2ccccc2)c1)c1ccccc1` (centres unmarked) [Example 17, N-benzyl-3-(3-(methylamino)-1-phenylpropoxy)benzamide], for which the values for the Ki in experiment [1] (Table 1), in experiment [1] (Table 2 (dual compounds)) and in experiment [2] were ≥ 3000 nM, ≥ 3000 nM and 500 to 1000 nM, respectively.
For the compound `CNCCC(Oc1cccc(C(=O)NCc2ccccn2)c1)c1ccccc1` (centres unmarked) [Example 18, 3-(3-(Methylamino)-1-phenylpropoxy)-N-(pyridin-2-ylmethyl)benzamide], the Ki in experiment [1] (Table 1) is ≥ 3000 nM; in experiment [1] (Table 2 (dual compounds)), ≥ 3000 nM; in experiment [2], 500 to 1000 nM.
Consider `CNCCNC(=O)c1cccc(OC(CCNC)c2ccccc2)c1` (centres unmarked) [Example 20, 3-(3-(Methylamino)-1-phenylpropoxy)-N-(2-(methylamino)ethyl)benzamide], for which the Ki in experiment [1] (Table 1) fell in the range of 500 to 3000 nM; in experiment [1] (Table 2 (dual compounds)), 500 to 3000 nM; in experiment [2], 500 to 1000 nM.
As for `CNCCC(Oc1cccc(C(=O)NC2CCN(C)CC2)c1)c1ccccc1` (centres unmarked) [Example 22, 3-(3-(Methylamino)-1-phenylpropoxy)-N-(1-methylpiperidin-4-yl)benzamide], the figures for the Ki in experiment [1] (Table 1), in experiment [1] (Table 2 (dual compounds)) and in experiment [2] were 500 to 3000 nM, 500 to 3000 nM and ≥ 1000 nM, respectively.
`CNCCC(Oc1cccc(N(C)C(=O)c2cccc(CN)c2)c1)c1ccccc1` (centres unmarked) [Example 27, 3-(Aminomethyl)-N-methyl-N-(3-(3-(methylamino)-1-phenylpropoxy)phenyl)benzamide]: the Ki is ≥ 3000 nM in experiment [1] (Table 1), ≥ 3000 nM in experiment [1] (Table 2 (dual compounds)) and 500 to 1000 nM in experiment [2].
As to `CNCCC(Oc1cccc(N(C)C(=O)CCCN)c1)c1ccccc1` (centres unmarked) [Example 28, 4-Amino-N-methyl-N-(3-(3-(methylamino)-1-phenylpropoxy)phenyl)butanamide], the results for the Ki in experiment [1] (Table 1), in experiment [1] (Table 2 (dual compounds)) and in experiment [2] were ≥ 3000 nM, ≥ 3000 nM and 500 to 1000 nM, respectively.
Turning to `CCNc1ncc(C(=O)N(C)c2cccc(COC(CCNC)c3cccs3)c2)c(N2CCCC2)n1` (centres unmarked) [Example 38, 2-(Ethylamino)-N-methyl-N-(3-((3-(methylamino)-1-(thiophen-2-yl)propoxy)methyl)phenyl)-4-(pyrrolidin-1-yl)pyrimidine-5-carboxamide], the Ki was 500 to 3000 nM in experiment [1] (Table 1), 500 to 3000 nM in experiment [1] (Table 2 (dual compounds)) and 500 to 1000 nM in experiment [2].
Consider `CNCCC(OCc1cccc(NC(=O)c2ccccc2)c1)c1ccccc1` (centres unmarked) [Example 39, N-(3-((3-(methylamino)-1-phenylpropoxy)methyl)phenyl)benzamide], for which the results for the Ki in experiment [1] (Table 1), in experiment [1] (Table 2 (dual compounds)) and in experiment [2] were ≥ 3000 nM, ≥ 3000 nM and 500 to 1000 nM, respectively.
As for `CNCCC(OCc1cccc(NC(=O)c2cnc(OC)nc2)c1)c1ccccc1` (centres unmarked) [Example 41, 2-Methoxy-N-(3-((3-(methylamino)-1-phenylpropoxy)methyl)phenyl)pyrimidine-5-carboxamide], the Ki was ≥ 3000 nM in experiment [1] (Table 1), ≥ 3000 nM in experiment [1] (Table 2 (dual compounds)) and 500 to 1000 nM in experiment [2].
Turning to `CNCCC(OCc1cccc(NC(=O)c2ccccn2)c1)c1ccccc1` (centres unmarked) [Example 43, N-(3-((3-(methylamino)-1-phenylpropoxy)methyl)phenyl)picolinamide], the Ki in experiment [1] (Table 1) is ≥ 3000 nM; in experiment [1] (Table 2 (dual compounds)), ≥ 3000 nM; in experiment [2], 500 to 1000 nM.
For `CNCCC(OCc1cccc(NC(=O)c2ccccc2)c1)c1cccs1` (centres unmarked) [Example 46, N-(3-((3-(methylamino)-1-(thiophen-2-yl)propoxy)methyl)phenyl)benzamide], the Ki in experiment [1] (Table 1) was ≥ 3000 nM; in experiment [1] (Table 2 (dual compounds)), ≥ 3000 nM; in experiment [2] it was 500 to 1000 nM.
Regarding `CNCCC(OCc1cccc(NC(=O)c2ccccc2F)c1)c1cccs1` (centres unmarked) [Example 48, 2-Fluoro-N-(3-((3-(methylamino)-1-(thiophen-2-yl)propoxy)methyl)phenyl)benzamide], the Ki in experiment [1] (Table 1) was ≥ 3000 nM; in experiment [1] (Table 2 (dual compounds)), ≥ 3000 nM; in experiment [2] it was 500 to 1000 nM.
As to `CCNc1ncc(C(=O)Nc2cccc(OC(CCNC)c3ccccc3)c2)c(N2CCCC2)n1` (centres unmarked) [Example 50, 2-(Ethylamino)-N-(3-(3-(methylamino)-1-phenylpropoxy)phenyl)-4-(pyrrolidin-1-yl)pyrimidine-5-carboxamide], the Ki was ≥ 3000 nM in experiment [1] (Table 1), ≥ 3000 nM in experiment [1] (Table 2 (dual compounds)) and 500 to 1000 nM in experiment [2].
As to `CNCCC(OCc1cccc(Nc2ccccc2)c1)c1ccccc1` (centres unmarked) [Example 58, 3-((3-(Methylamino)-1-phenylpropoxy)methyl)-N-phenylaniline], the results for the Ki in experiment [1] (Table 1), in experiment [1] (Table 2 (dual compounds)) and in experiment [2] were ≥ 3000 nM, ≥ 3000 nM and 100 to 500 nM, respectively.
Turning to `CNCCC(OCc1cccc(Nc2ncccn2)c1)c1ccccc1` (centres unmarked) [Example 59, N-(3-((3-(methylamino)-1-phenylpropoxy)methyl)phenyl)pyrimidin-2-amine], in experiment [1] (Table 1), the Ki was ≥ 3000 nM.
On the same count and under the same terms, then `CCNc1ncc(C(=O)N(C)c2cccc(OC(CCNC)c3ccccc3)c2)cn1` (centres unmarked) [Example 60, 2-(Ethylamino)-N-methyl-N-(3-(3-(methylamino)-1-phenylpropoxy)phenyl)pyrimidine-5-carboxamide], with ≥ 3000 nM; and `CNCCC(OCc1cccc(N(C(C)=O)c2ccccc2)c1)c1ccccc1` (centres unmarked) [Example 61, N-(3-((3-(methylamino)-1-phenylpropoxy)methyl)phenyl)-N-phenylacetamide], with ≥ 3000 nM.
The same measure, in the same setting: then `CNCCC(Oc1cccc(N(C)C(C)=O)c1)c1cccs1` (centres unmarked) [Example 62, N-methyl-N-(3-(3-(methylamino)-1-(thiophen-2-yl)propoxy)phenyl)acetamide], with ≥ 3000 nM.
Same read-out and setting: then `CNCCC(Oc1cccc(N(C)C(=O)c2ccccc2)c1)c1cccs1` (centres unmarked) [Example 63, N-methyl-N-(3-(3-(methylamino)-1-(thiophen-2-yl)propoxy)phenyl)benzamide], with ≥ 3000 nM; and `CCCC(=O)N(C)c1cccc(OC(CCNC)c2cccs2)c1` (centres unmarked) [Example 64, N-methyl-N-(3-(3-(methylamino)-1-(thiophen-2-yl)propoxy)phenyl)butyramide], with ≥ 3000 nM; and `CNCCC(Oc1cccc(N(C)C(=O)c2cccnc2)c1)c1cccs1` (centres unmarked) [Example 65, N-methyl-N-(3-(3-(methylamino)-1-(thiophen-2-yl)propoxy)phenyl)nicotinamide], with ≥ 3000 nM.
As to `CNCCC(Oc1cccc(C(=O)Nc2ccccc2)c1)c1cccs1` (centres unmarked) [Example 66, 3-(3-(Methylamino)-1-(thiophen-2-yl)propoxy)-N-phenylbenzamide], the Ki in experiment [1] (Table 1) fell in the range of 500 to 3000 nM.
Consider `CNCCC(Oc1cccc(C(=O)N(C)c2ccccc2)c1)c1cccs1` (centres unmarked) [Example 67, N-methyl-3-(3-(methylamino)-1-(thiophen-2-yl)propoxy)-N-phenylbenzamide], for which, in experiment [1] (Table 1), the Ki is ≥ 3000 nM.
Same read-out and setting: then `CNCCC(Oc1cccc(C(=O)N(C)c2cccnc2)c1)c1ccccc1` (centres unmarked) [Example 68, N-methyl-3-(3-(methylamino)-1-phenylpropoxy)-N-(pyridin-3-yl)benzamide], with ≥ 3000 nM.
Same read-out and setting: then `CNCCC(Oc1cccc(C(=O)N(C)c2ccccc2)c1)c1ccccc1` (centres unmarked) [Example 69, N-methyl-3-(3-(methylamino)-1-phenylpropoxy)-N-phenylbenzamide], with ≥ 3000 nM.
As for `CNCCC(Oc1ccc(CN(C)Cc2ccccc2)c(F)c1)c1cccs1` (centres unmarked) [Example 70, 3-(4-((Benzyl(methyl)amino)methyl)-3-fluorophenoxy)-N-methyl-3-(thiophen-2-yl)propan-1-amine], the figures for the Ki in experiment [1] (Table 1), in experiment [1] (Table 2 (dual compounds)) and in experiment [2] were ≥ 3000 nM, ≥ 3000 nM and 100 to 500 nM, respectively.

Source of the values: patent publication US11111220B2, “Propanamine derivatives for treating pain and pain related conditions” (ESTEVE PHARMACEUTICALS, S.A., priority 2017, dated 2021).
